From patent US20130023504A1, “Modulation of Prostaglandin/Cyclooxygenase Metabolic Pathways” (HUNTER-FLEMING LIMITED, priority 2006, published 2013)

Tested on: rat spinal cord motor neurones
Assay: Neurite growth of spinal cord motor neurones in primary culture (anti β-Tubulin, In Cell Analyzer)
Type: cell-based
Experimental: Rat spinal motor neurones were prepared according to the method described by Martinou et al., 1992 (Martinou J C, Martinou I, Kato AC Cholinergic differentiation factor (CDF/LIF) promotes survival of isolated rat embryonic motoneurons in vitro. Neuron. 1992 April; 8(4):737-44). Briefly, pregnant female Wistar rats of 15 days gestation, were killed by cervical dislocation and the foetuses were removed from the uterus. Their spinal cords were removed and placed in ice-cold medium of Leibovitz (L15, Invitrogen, 11415-049) containing 1% of bovine serum albuminutes (BSA fatty acid free, Eurobio, Les Ulis, France, GXXBSA01-65). Meninges were carefully removed.
The spinal motor neurones were dissociated by trypsinisation for 20 minutes at 37° C. (trypsin EDTA 10× Invitrogen 15400054) diluted in PBS without calcium and magnesium (Invitrogen 2007-03). The reaction was stopped by the addition of Dulbecco Modified Eagle's Media (DMEM, Invitrogen 21969-035) containing DNase I grade II (0.1 mg/ml Roche diagnostic 104159) and 10% foetal calf serum (FCS, Invitrogen 10270098). The suspension was then mechanically dissociated by 3 passages through a 10 ml pipette. Cells were then centrifuged at 580 g for 10 minutes at room temperature. The pellet of dissociated cells was re-suspended in L15 medium and the resulting suspension was enriched in motor neurones by centrifugation at 180×g for 10 minutes at room temperature on a layer of BSA solution (3.5%) in L15 medium. The supernatant was discarded and the pellet was re-suspended in L15 medium supplemented with DNase I (1%). Then the suspension was layered over a cushion of Optiprep (d: 1.06 g/ml; Abcys, Paris, France; 1030061) and centrifuged at 335×g for 15 minutes at room temperature. The upper phase, containing the purified motor neurones, was collected, re-suspended with L15 medium and centrifuged at 800×g for 10 minutes at room temperature. The cell pellet was finally resuspended in a defined culture medium consisting of neurobasal medium supplemented with 2% B27, 2 mM L-Glutamine and Penicillin 50 Ul/ml-Streptomycin 50 μg/ml. Viable cells were counted in a Neubauer cytometer using the trypan blue exclusion test (Sigma T8154) then plated at 30 000 cells/well in 96 well-plates (pre-coated with poly-1-lysine; Nunclon, Invitrogen P5899) and cultured at 37° C. in a humidified air (95%) CO2 (5%) atmosphere.
The culture medium was changed into a defined culture medium after a 12 hours incubation period following the conditions described below:
BDNF 50 ng/ml and 10 ng/ml (in 0.1% DMSO)
After 6 hours, 12 hours and 24 hours of incubation with, cells were fixed for 5 minutes in an ethanol/acetic acid solution (95%/5%) at −20° C. and rinsed 3 times in PBS.
Motor neurones and sensory neurones were labelled by monoclonal anti β-Tubulin antibody (Sigma T8660) diluted at 1:400 in incubation solution (PBS with 5% of FCS and 0.1% of saponin, Sigma S-7900). This antibody specifically labels neurone cell bodies and neurites.
After 2 hours of incubation, the cells were washed in PBS and incubated with Alexa Fluor 488 goat anti mouse IgG (Molecular Probes A11001) diluted at 1:300 in incubation solution to reveal the 8-Tubulin III antibodies.
Analysis of the total length of neurones labelled with anti β-Tubulin antibodies (neurones) were carried out using In Cell Analyzer 1000 3.2.Workstation software.
The results were expressed in percentage compared to the vehicle. Comparison of groups was carried out using the unpaired T test.

SMILES: CC12CCC3C(C1CCC2=O)[C@@H](O)C[C@H]1C[C@@H](O)CCC31C (stereo partly drawn) [Compound 7β-OH-EPIA, 7β-hydroxy-EPIAndrosterone]
- Neurites length per field, % Vehicle (10^−4 M, 6 hours): 124%
- Neurites length per field, Mean (10^−4 M, 6 hours): 315.9 μm
- Neurites length per field, % Vehicle (10^−4 M, 12 hours): 142%
- Neurites length per field, Mean (10^−4 M, 12 hours): 602.4 μm
- Neurites length per field, % Vehicle (10^−4 M, 24 hours): 87%
- Neurites length per field, Mean (10^−4 M, 24 hours): 188.4 μm
- Neurites length per field, % Vehicle (10^−5 M, 6 hours): 115%
- Neurites length per field, Mean (10^−5 M, 6 hours): 293.3 μm
- Neurites length per field, % Vehicle (10^−5 M, 12 hours): 161%
- Neurites length per field, Mean (10^−5 M, 12 hours): 680.9 μm
- Neurites length per field, % Vehicle (10^−5 M, 24 hours): 93%
- Neurites length per field, Mean (10^−5 M, 24 hours): 200.9 μm
- Neurites length per field, % Vehicle (10^−6 M, 6 hours): 139%
- Neurites length per field, Mean (10^−6 M, 6 hours): 354.5 μm
- Neurites length per field, % Vehicle (10^−6 M, 12 hours): 137%
- Neurites length per field, Mean (10^−6 M, 12 hours): 580.3 μm
- Neurites length per field, % Vehicle (10^−6 M, 24 hours): 104%
- Neurites length per field, Mean (10^−6 M, 24 hours): 224.8 μm
- Neurites length per field, % Vehicle (10^−7 M, 6 hours): 138%
- Neurites length per field, Mean (10^−7 M, 6 hours): 350.5 μm
- Neurites length per field, % Vehicle (10^−7 M, 12 hours): 137%
- Neurites length per field, Mean (10^−7 M, 12 hours): 956.7 μm
- Neurites length per field, % Vehicle (10^−7 M, 24 hours): 126%
- Neurites length per field, Mean (10^−7 M, 24 hours): 271.7 μm
- Neurites length per field, % Vehicle (10^−8 M, 6 hours): 150%
- Neurites length per field, Mean (10^−8 M, 6 hours): 382.4 μm
- Neurites length per field, % Vehicle (10^−8 M, 12 hours): 179%
- Neurites length per field, Mean (10^−8 M, 12 hours): 759.0 μm
- Neurites length per field, % Vehicle (10^−8 M, 24 hours): 174%
- Neurites length per field, Mean (10^−8 M, 24 hours): 374.6 μm
- Neurites length per field, % Vehicle (10^−9 M, 6 hours): 188%
- Neurites length per field, Mean (10^−9 M, 6 hours): 479.3 μm
- Neurites length per field, % Vehicle (10^−9 M, 12 hours): 180%
- Neurites length per field, Mean (10^−9 M, 12 hours): 764.9 μm
- Neurites length per field, % Vehicle (10^−9 M, 24 hours): 123%
- Neurites length per field, Mean (10^−9 M, 24 hours): 265.9 μm
